Laboratory results as given in patent US3974188A, “Process for producing cholestane type steroids” (The Lion Dentifrice Co., Ltd., priority 1974, dated 1976).

Experiments:
[1] = system: sarcomatous growth; assay: Test for inhibition of sarcomatous growth (Rat cotton pellet method); assay type: in vivo; conditions: dose 100 mg/kg, 7 rats
Text: 1. Test for inhibition of sarcomatous growth
(Rat cotton pellet method)*
*Meier, R., Schuler, W. and Desaulees, P. : Experienta, 6, (1950)

[2] = system: vascular diffusion; assay: Test for inhibition of the acceleration of vascular diffusion (inhibition of cutaneous chromoleaching of rat); assay type: in vivo; conditions: for Inhibition rate (%) / Mean blueing area (mm^2 ± S.E.): rat; for Mean blueing area (mm^2 ± S.E.): none: 200 ± 8.0
Text: 3. Test for inhibition of the acceleration of vascular diffusion
(Test for inhibition of cutaneous chromoleaching of rat)**
**Juduh, J. D. and Willoughby, D.A.; J. Path. Buct., 83, 567 (1962)

[3] = Acute toxicity, LD50; assay type: in vivo; conditions: mouse, in vivo, mouse male, 5 weeks
Text: (§1) |LD50 (mouse male, 5 weeks)

[4] = Antiinflammatory effect (overall statement); conditions: in vivo
[5] = system: mouse; assay: Acute toxicity, LD50; assay type: in vivo; conditions: mouse male, 5 weeks; intraperitoneal
Text: as §1

Structure (SMILES) | Inhibition rate (%) [1] | Inhibition rate (%) ([2]; 50 mg/kg P.C.) | Mean blueing area (mm^2 ± S.E.) ([2]; 50 mg/kg P.C.) | Inhibition rate (%) ([2]; 100 mg/kg P.C.) | Mean blueing area (mm^2 ± S.E.) ([2]; 100 mg/kg P.C.) | LD50 ([3]; ip, intraperitoneal) | LD50 ([3]; po) | antiinflammatory effect (in words) [4] | LD50 [5] | acceleration of vascular diffusion (in words) ([2]; 100 mg/kg)
CC(C)CCC[C@@H](C)[C@H]1CC[C@H]2[C@@H]3CC[C@H]4C[C@H](O)CC[C@]4(C)[C@H]3CC[C@]12C [EC, epicholestanol] | 6.9% | 4.5% | 191 ± 9 mm^2 | 10% | 180 ± 4 mm^2 |  |  |  |  | 
CC(C)CCC[C@@H](C)[C@H]1CC[C@H]2[C@@H]3CC[C@H]4C[C@@H](OP(=O)(O)O)CC[C@]4(C)[C@H]3CC[C@]12C [K2 --PEC, dipotassium cholestanyl phosphate] | 10.0% |  |  |  |  |  |  |  |  | 
CC(C)CCC[C@@H](C)[C@H]1CC[C@H]2[C@@H]3CC[C@H]4C[C@H](OP(=O)(O)O)CC[C@]4(C)[C@H]3CC[C@]12C [dipotassium epicholestanyl phosphate] | 21.5% | 18% | 164 ± 4 mm^2 | 21% | 158 ± 6 mm^2 | 1580 mg/kg | 9300 mg/kg | remarkably effective as an antiinflammatory agent |  | 
CC(C)CCC[C@@H](C)[C@H]1CC[C@H]2[C@@H]3CC[C@H]4C[C@H](OP(=O)(O)O)CC[C@]4(C)[C@H]3CC[C@]12C [epicholestanyl phosphate] |  |  |  |  |  |  |  |  | 1850 mg/kg | inhibited
CC(C)CCC[C@@H](C)[C@H]1CC[C@H]2[C@@H]3CC[C@H]4C[C@@H](O)CC[C@]4(C)[C@H]3CC[C@]12C [C, cholestanol] | 4.5% | 4.5% | 191 ± 5 mm^2 | 6% | 188 ± 3 mm^2 |  |  |  |  | 
